Entries after “also recorded” stand apart in the source; their conditions may differ. Like-named read-outs stand apart in the source and are kept apart here.
Experiments:
HS578T = assay: CellTiter-Glo cell viability assay, single agents, three days; assay type: cell-based; details: Homo sapiens, Hs-578T, 72 h; for Emax: read-out: Max Inhibition
MCF7 [1] = assay: as above; assay type: cell-based; details: Homo sapiens; for Emax: read-out: Max Inhibition
MDAMB468 = assay: as above; assay type: cell-based; details: Homo sapiens, MDA-MB-468, 72 h; for Emax: read-out: Max Inhibition; for GI50: MDAMB468, three days, CellTiter-Glo
MDAMB231 = assay: as above; assay type: cell-based; details: Homo sapiens, MDA-MB-231, 72 h; for Emax: read-out: Max Inhibition; for GI50: MDAMB231, three days, CellTiter-Glo
T47D = assay: as above; assay type: cell-based; details: Homo sapiens, 72 h; for Emax: read-out: Max Inhibition
BT549 = assay: as above; assay type: cell-based; details: Homo sapiens, BT-549, 72 h; for Emax: read-out: Max Inhibition; for GI50: BT549, three days, CellTiter-Glo
[2] = Phase II clinical trial; cited from earlier work
[3] = compared to Tamoxifen; cited from earlier work
[4] = compared to Tamoxifen; cited from earlier work; remark: listed apart in the source
[5] = system: breast carcinoma cells with aromatose inhibitor resistant characteristics; details: aromatase inhibitor resistant characteristics; cited from earlier work
[6] = system: Tamoxifen-sensitive and Tamoxifen-resistant breast carcinomas; details: in vitro and in vivo; cited from earlier work
[7] = system: human mammary carcinoma cell lines; assay: Combination screen of TAS-108 with a second compound, all six breast lines; details: number of the six breast cell lines with synergy, in combination with TAS-108
Description: (§1) Cells were treated with compounds alone or in combination for three days and CellTiter-Glo® Luminescent Cell Viability Assay (Promega Corp.) was used as the endpoint to measure cell viability.
(§2) Cells were cultured in RPMI with 10% fetal bovine serum and used between passage 2 and passage 20.
(§3) Other compounds used were purchased from commercial sources (Sigma, AK Scientific). 40 mM Compound stocks in 100% DMSO were made. Master plates were made with Janus (PerkinElmer), then further diluted and added to the cell plates with Matrix Platemate (Thermo) on Day 0.
(§4) CellTiter-Glo® Luminescent Cell Viability Assay (Promega Corp.) was used to measure ATP as an indicator of viable cells on Day 3 using Envision (PerkinElmer) and back up plate reader Analyst HT (MDS) and Gen5 (BioTek).
(§5) Relative Luminescent Units (RLU) were plotted against corresponding drug concentrations and fitted with a standard four parameter sigmoidal curve with custom coded R program. Percentage growth inhibition is calculated as: [(Ti−Tz)/(C−Tz)]×100 for concentrations for which Ti≧Tz and [(Ti−Tz)/Tz]×100 for concentrations for which Ti<Tz.
(§6) Twenty-five doses were tested for each pair of combinations.
(§7) N: no synergistic effect; Y: synergistic effect; y: weak synergistic effect.

[8] = system: 60 cancer cell lines of different tissues of origin; assay: Non-bias 5x4 checkerboard combination screen of TAS108 with 30 chemotherapeutic agents; assay type: cell-based
Description: We used 5×4 factorial (checkerboard) design. The combinations were screened against 60 cancer cell lines of different tissues of origin, including melanoma, ovarian, CNS, renal, lung, breast, colon, prostate, and leukemia cancers, represented by cell lines including LOXIMVI, M14,MDAMB468, HT29, NCIH522, HS578T, RPMI8226, HOP92, HL60, OVCAR8, SR, SKMEL2, PC3, HOP62, HCC2998,786O, U251, OVCAR3, NCIH23, T47D, SF295, MOLT4, HCT15, SF539, BT549, SN12C, KM12, ADRRES, A498, NCIH226, NCIH322M, OVCAR5, MALME, OVCAR4, RXF393, SW620, CCRFCEM, UACC62, ACHN, SKOV3, SF268, EKVX, A549, NCIH460, IGROV1, SNB75, UACC257, UO31, HCT116, TK10, K562, SKMEL28, COLO205, SNB19, MDAMB231, DU145, CAKI1, MDAMB435, and MCF7.
After quantifying the degree of synergy for specified doses of compounds within each individual cell line, we used meta analysis to aggregate those effects across doses and the cell line panel (Table 1).

HS 578T = assay: Combination screen of TAS-108 with a second compound, CellTiter-Glo; details: in combination with TAS-108
Description: as §1, §2, §3, §4, §5, §6, §7

MDA-MB-468 = assay: as above; details: MDA-MB-468, in combination with TAS-108
Description: as §1, §2, §3, §4, §5, §6, §7

MCF7 [9] = assay: as above; details: MCF7, in combination with TAS-108
Description: as §1, §2, §3, §4, §5, §6, §7

MDA-MB-231 = assay: as above; details: MDA-MB-231, in combination with TAS-108
Description: as §1, §2, §3, §4, §5, §6, §7

T-47D = assay: as above; details: in combination with TAS-108
BT-549 = assay: as above; assay type: cell-based, human; details: BT-549, in combination with TAS-108
[10] = HS578T, three days, CellTiter-Glo, read-out: GI50
[11] = 72 h, MCF7, highest dose tested
[12] = 72 h, MCF7, three days, CellTiter-Glo, read-out: GI50
[13] = three days, CellTiter-Glo, read-out: GI50

GI50 (MCF7 [1]; [12])	GI50 (MDAMB468)	GI50 (MDAMB231)	GI50 (T47D; [13])	GI50 (BT549)	Compound	Emax (HS578T; HS578T, highest dose tested)	GI50 (HS578T; [10])	Emax (MCF7 [1]; [11])	Emax (MDAMB468; MDAMB468, highest dose tested)	Emax (MDAMB231; MDAMB231, highest dose tested)	Emax (T47D; highest dose tested)	Emax (BT549; BT549, highest dose tested)	Synergy # [7]	Synergistic effect of TAS 108 paired with compound (HS 578T)	other results
–	–	–	–	–	C/C=C1\NC(=O)[C@H]2CSSCC/C=C/[C@H](CC(=O)N[C@H](C(C)C)C(=O)N2)OC(=O)[C@H](C(C)C)NC1=O [Romidepsin]	–	–	–	–	–	–	–	–	–	GI50 (HS578T): 0.3 nM; Emax (HS578T): 99.6%; GI50 (MCF7 [1]; MCF7, 72 h): 0.44 nM; Emax (MCF7 [1]; MCF7, 72 h): 94%; Emax (MDAMB468): 99.8%; Emax (MDAMB231): 99.9%; GI50 (T47D): 1.1 nM; Emax (T47D): 96.7%; Emax (BT549): 99.8%
10000 nM	1800 nM	9300 nM	11000 nM	13000 nM	CCN(CC)Cc1ccc(OCC[C@H]2CC[C@H]3[C@@H]4[C@H](C)Cc5cc(O)ccc5[C@H]4CC[C@]23C)c(OC)c1 [TAS-108, (7α)-21-[4-[(Diethylamino)methyl]-2-methoxyphenoxy]-7-methyl-19-norpregna-1,3,5(10)-trien-3-ol 2-hydroxy-1,2,3-propanetricarboxylate]	100%	8200 nM	99%	100%	100%	100%	100%	–	–	clinical benefit [2]: provided clinical benefits; tolerability [2]: well tolerated; bone density [3]: protects against reductions in bone density, similar to Tamoxifen; uterotrophic activity [4]: significantly less uterotrophic activity compared to Tamoxifen; growth of breast carcinoma cells [5]: inhibits the growth; anti-tumor activity [6]: potent anti-tumor activity
54 nM	63 nM	11000 nM	47 nM	220 nM	CO[C@H]1C[C@@H]2CC[C@@H](C)[C@@](O)(O2)C(=O)C(=O)N2CCCC[C@H]2C(=O)O[C@H]([C@H](C)C[C@@H]2CC[C@@H](O)[C@H](OC)C2)CC(=O)[C@H](C)/C=C(\C)[C@@H](O)[C@@H](OC)C(=O)[C@H](C)C[C@H](C)/C=C/C=C/C=C/1C [Rapamycin]	41%	1000 nM	55%	100%	95%	45%	99%	–	–	–
170 nM	63 nM	54000 nM	52 nM	5800 nM	CO[C@H]1C[C@@H]2CC[C@@H](C)[C@@](O)(O2)C(=O)C(=O)N2CCCC[C@H]2C(=O)O[C@H]([C@H](C)C[C@@H]2CC[C@@H](OCCO)[C@H](OC)C2)CC(=O)[C@H](C)/C=C(\C)[C@@H](O)[C@@H](OC)C(=O)[C@H](C)C[C@H](C)/C=C/C=C/C=C/1C [Everolimus]	41%	63 nM	43%	100%	40%	49%	100%	6	Y	synergy with TAS-108 across the cell line panel (in words) ([8]; in combination with TAS-108): synergy was consistently found; also recorded: significant synergy; ES: synergistic effect size ([8]; in combination with TAS-108, meta analysis across doses and 60 cell lines): 0.037
–	–	–	–	–	CNC(=O)c1cc(Oc2ccc(NC(=O)Nc3ccc(Cl)c(C(F)(F)F)c3)cc2)ccn1 [Sorafenib]	–	–	–	–	–	–	–	0	N	Synergistic effect of TAS 108 paired with compound (MDA-MB-468): N; Synergistic effect of TAS 108 paired with compound (MCF7 [9]): N; Synergistic effect of TAS 108 paired with compound (MDA-MB-231): N; Synergistic effect of TAS 108 paired with compound (T-47D): N; Synergistic effect of TAS 108 paired with compound (BT-549): N

Source: patent publication US20130231292A1, “Synergistic anti-proliferation activity of TAS-108 with mTOR inhibitors against cancer cells” (priority 2012, published 2013)
